According to ChEMBL document CHEMBL1201862, “PubChem BioAssay data set” (2004):
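These data come from cells grown in 96-well plates and exposed to compound for 48 hours at five concentrations. GI50 = concentration required for 50% inhibition of growth.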 Active and inactive are the calls of the source. No stated cut-off is given here; in the data, active = GI50 up to about 1.1 µM and inactive = higher.

Experiments:
Experiment in all cases: inhibition of tumour cell growth, NCI panel, 48 h
786-0 = test system: 786-0
ACHN = test system: ACHN
CAKI-1 = test system: CAKI-1
CCRF-CEM = test system: CCRF-CEM
HCT-15 = test system: HCT-15
HOP-62 = test system: HOP-62
HT-29 = test system: HT-29
K562 = test system: K562
LOX IMVI = test system: LOX IMVI
MDA-N = test system: MDA-N
MOLT-4 = test system: MOLT-4
Malme-3M = test system: Malme-3M
NCI/ADR-RES = test system: NCI/ADR-RES
OVCAR-8 = test system: OVCAR-8
RXF 393 = test system: RXF 393
SF-295 = test system: SF-295
SK-MEL-28 = test system: SK-MEL-28
SK-MEL-2 = test system: SK-MEL-2
SN12C = test system: SN12C

SMILES	GI50 (786-0)	GI50 (ACHN)	GI50 (CAKI-1)	GI50 (CCRF-CEM)	GI50 (HCT-15) [µM]	GI50 (HOP-62)	GI50 (HT-29)	GI50 (K562)	GI50 (LOX IMVI)	GI50 (MDA-N)	GI50 (MOLT-4)	GI50 (Malme-3M)	GI50 (NCI/ADR-RES)	GI50 (OVCAR-8)	GI50 (RXF 393)	GI50 (SF-295)	GI50 (SK-MEL-28)	GI50 (SK-MEL-2)	GI50 (SN12C)
COc1ccc([C@H](NC(=O)c2ccccc2)[C@@H](O)C(=O)O[C@H]2C[C@@]3(O)C(OC(=O)c4ccccc4)C4[C@](C)(C(=O)[C@H](OC(C)=O)C(=C2C)C3(C)C)[C@@H](O)C[C@H]2OC[C@@]42OC(C)=O)cc1 (stereo partly specified)	0.0389 µM (active)	0.724 µM (active)	0.249 µM (active)	0.00184 µM (active)	0.366	0.015 µM (active)	< 0.001 µM (active)	0.00122 µM (active)	0.0012 µM (active)	0.00468 µM (active)	0.00286 µM (active)	0.0028 µM (active)	> 6.43 µM (inactive)	0.00434 µM (active)	0.0412 µM (active)	0.0783 µM (active)	0.00593 µM (active)	0.00705 µM (active)	0.00284 µM (active)
C=CCC1(C#N)C(=S)NC2=C(C(=O)CC(C)(C)C2)C1c1ccccc1 (stereo unspecified)	35.9 µM (inactive)	–	74.3 µM (inactive)	83.6 µM (inactive)	70.1	–	34.6 µM (inactive)	82.2 µM (inactive)	68.9 µM (inactive)	70.6 µM (inactive)	74.1 µM (inactive)	–	56.9 µM (inactive)	24 µM (inactive)	42.7 µM (inactive)	–	61.8 µM (inactive)	46.8 µM (inactive)	38.5 µM (inactive)
Cc1cc(=O)n2nc(CSc3nnc(N)s3)sc2n1	> 100 µM (inactive)	> 100 µM (inactive)	> 100 µM (inactive)	> 100 µM (inactive)	> 100	> 100 µM (inactive)	> 100 µM (inactive)	> 100 µM (inactive)	> 100 µM (inactive)	> 100 µM (inactive)	> 100 µM (inactive)	> 100 µM (inactive)	> 100 µM (inactive)	> 100 µM (inactive)	> 100 µM (inactive)	> 100 µM (inactive)	> 100 µM (inactive)	> 100 µM (inactive)	> 100 µM (inactive)
COC(=O)C(Cc1ccccc1)NC(=O)C(CCCNC(=N)N)NC(=O)OCc1ccccc1 (stereo unspecified)	> 100 µM (inactive)	> 100 µM (inactive)	> 100 µM (inactive)	> 100 µM (inactive)	> 100	> 100 µM (inactive)	> 100 µM (inactive)	> 100 µM (inactive)	> 100 µM (inactive)	> 100 µM (inactive)	> 100 µM (inactive)	> 100 µM (inactive)	> 100 µM (inactive)	> 100 µM (inactive)	> 100 µM (inactive)	> 100 µM (inactive)	> 100 µM (inactive)	–	> 100 µM (inactive)
